Values of other authors in patent US20250270235A1, “COMPLEX OF GADOLINIUM AND A CHELATING LIGAND DERIVED OF A DIASTEREOISOMERICALLY ENRICHED PCTA AND SYNTHESIS METHOD” (GUERBET, priority 2019, published 2025).

Columns and labels:
[1] = comparative, same conditions (pH 1.2, 37° C.); cited from earlier work
[2] = as described in WO 2014/174120; comparative; cited from earlier work

## O=C([O-])CN1CCN(CC(=O)[O-])CCN([C@H](CO)[C@H](O)CO)CCN(CC(=O)[O-])CC1.[Gd+3] (racemic) [gadobutrol]
[1]
  kinetic inertia: 18 h

## O=C([O-])CN1CCN(CC(=O)[O-])CCN(CC(=O)O)CCN(CC(=O)[O-])CC1.[Gd+3] [DOTA-Gd, gadolinium complex of 1,4,7,10-tetraazacyclododecane-N,N′,N″,N′″-tetraacetic acid]
[2]
  log (Ktherm), stability constant: 25.6

## CNC(=O)CN(CCN(CCN(CC(=O)[O-])CC(=O)NC)CC(=O)[O-])CC(=O)[O-].[Gd+3] [gadodiamide]
[1]
  kinetic inertia (dissociation, in words): dissociate instantaneously

## O=C([O-])CN(CCN(CC(=O)[O-])CC(=O)[O-])CCN(CC(=O)[O-])CC(=O)[O-].[Gd+3] [gadopentetate]
[1]
  kinetic inertia (dissociation, in words): dissociate instantaneously

## CNC[C@H](O)[C@@H](O)[C@H](O)[C@H](O)CO.O=C([O-])CN1CCN(CC(=O)[O-])CCN(CC(=O)O)CCN(CC(=O)[O-])CC1.[Gd+3] [gadoterate]
[1]
  kinetic inertia: 96 h
